Assay: xn = mol fraction of the nth substance listed
Details: 100 kPa, Liquid; for viscosity: Concentric cylinders viscometry; for mass density: Vibrating tube method

O=Cc1ccccc1 [benzaldehyde] + CCCC(C)O
Details	mass density [kg/m3]	viscosity [mPa·s]
293.15 K, x1 = 0.0809	825.2	3.3
293.15 K, x1 = 0.1662	841.4	2.75
293.15 K, x1 = 0.2441	858.3	2.36
293.15 K, x1 = 0.3552	882.5	1.95
293.15 K, x1 = 0.4418	903	1.757
293.15 K, x1 = 0.5664	933.2	1.62
293.15 K, x1 = 0.6565	956.4	1.568
293.15 K, x1 = 0.7447	980	1.537
293.15 K, x1 = 0.8528	1008.5	1.516
293.15 K, x1 = 0.9419	1031.8	1.51
293.15 K, x1 = 1	1046.3	1.52
298.15 K, x1 = 0.0809	821.1	2.775
298.15 K, x1 = 0.1662	837.2	2.35
298.15 K, x1 = 0.2441	854	2.05
298.15 K, x1 = 0.3552	878.2	1.731
298.15 K, x1 = 0.4418	898	1.584
298.15 K, x1 = 0.5664	928.2	1.458
298.15 K, x1 = 0.6565	951.2	1.416
298.15 K, x1 = 0.7447	975.4	1.395
298.15 K, x1 = 0.8528	1004.1	1.39
298.15 K, x1 = 0.9419	1027.4	1.395
298.15 K, x1 = 1	1041.7	1.41
303.15 K, x1 = 0.0809	817	2.4
303.15 K, x1 = 0.1662	833	2.06
303.15 K, x1 = 0.2441	849.7	1.809
303.15 K, x1 = 0.3552	873.9	1.55
303.15 K, x1 = 0.4418	894.4	1.411
303.15 K, x1 = 0.5664	923.8	1.301
303.15 K, x1 = 0.6565	946.9	1.259
303.15 K, x1 = 0.7447	971	1.25
303.15 K, x1 = 0.8528	1000	1.259
303.15 K, x1 = 0.9419	1023.1	1.28
303.15 K, x1 = 1	1037.1	1.31
308.15 K, x1 = 0.0809	812.9	2.035
308.15 K, x1 = 0.1662	828.8	1.78
308.15 K, x1 = 0.2441	845.5	1.584
308.15 K, x1 = 0.3552	869.6	1.369
308.15 K, x1 = 0.4418	890.3	1.25
308.15 K, x1 = 0.5664	919.3	1.159
308.15 K, x1 = 0.6565	942.3	1.128
308.15 K, x1 = 0.7447	966.5	1.117
308.15 K, x1 = 0.8528	995.5	1.138
308.15 K, x1 = 0.9419	1018	1.175
308.15 K, x1 = 1	1032.4	1.22
313.15 K, x1 = 0.0809	808.6	1.746
313.15 K, x1 = 0.1662	824.4	1.537
313.15 K, x1 = 0.2441	841.1	1.37
313.15 K, x1 = 0.3552	865.2	1.185
313.15 K, x1 = 0.4418	885.2	1.088
313.15 K, x1 = 0.5664	914.8	1.021
313.15 K, x1 = 0.6565	937.8	0.999
313.15 K, x1 = 0.7447	962	0.999
313.15 K, x1 = 0.8528	991.1	1.035
313.15 K, x1 = 0.9419	1013.9	1.088
313.15 K, x1 = 1	1027.9	1.15
318.15 K, x1 = 0.0809	804.2	1.46
318.15 K, x1 = 0.1662	820	1.291
318.15 K, x1 = 0.2441	836.7	1.167
318.15 K, x1 = 0.3552	860.8	1.032
318.15 K, x1 = 0.4418	881.4	0.963
318.15 K, x1 = 0.5664	910.4	0.9
318.15 K, x1 = 0.6565	933.4	0.881
318.15 K, x1 = 0.7447	957.4	0.884
318.15 K, x1 = 0.8528	986.6	0.932
318.15 K, x1 = 0.9419	1009.1	1.011
318.15 K, x1 = 1	1023.4	1.09
323.15 K, x1 = 0.0809	799.7	1.206
323.15 K, x1 = 0.1662	815.6	1.068
323.15 K, x1 = 0.2441	832.2	0.984
323.15 K, x1 = 0.3552	856.3	0.887
323.15 K, x1 = 0.4418	876.9	0.831
323.15 K, x1 = 0.5664	906.7	0.789
323.15 K, x1 = 0.6565	928.9	0.782
323.15 K, x1 = 0.7447	952.9	0.799
323.15 K, x1 = 0.8528	981.6	0.85
323.15 K, x1 = 0.9419	1004.5	0.941
323.15 K, x1 = 1	1019.1	1.03

Reference: the NIST ThermoML archive (doi:10.1021/acs.jced.7b00335)
